The source of these data is ChEMBL document CHEMBL4419165, “Fibcd1 for the prevention and treatment of diseases” (2014).

Calls of active or inactive are those of the source. No cut-off for these calls is given here. Where only a bound is given, the exact number is not on record here.

Assay [1] deals with T1, Fibrinogen C domain-containing protein 1 (Homo sapiens) (UniProt Q8N539).
T1 sequence (whole entry): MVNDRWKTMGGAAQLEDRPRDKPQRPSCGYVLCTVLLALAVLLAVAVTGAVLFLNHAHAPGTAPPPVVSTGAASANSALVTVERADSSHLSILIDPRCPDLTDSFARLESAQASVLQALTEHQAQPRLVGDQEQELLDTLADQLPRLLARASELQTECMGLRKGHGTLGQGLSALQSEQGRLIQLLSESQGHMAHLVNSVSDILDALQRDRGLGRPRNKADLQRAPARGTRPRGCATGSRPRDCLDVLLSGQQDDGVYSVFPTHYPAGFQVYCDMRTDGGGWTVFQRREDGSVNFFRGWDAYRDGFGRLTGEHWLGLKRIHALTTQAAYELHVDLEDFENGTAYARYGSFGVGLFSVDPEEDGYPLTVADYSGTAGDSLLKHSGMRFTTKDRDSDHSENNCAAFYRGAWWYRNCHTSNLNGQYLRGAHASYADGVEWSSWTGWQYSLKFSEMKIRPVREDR
Briefly: Binding affinity to V5-His tagged FIBCD1 ecto-domain (54 to 461 residues) (unknown origin) assessed as reduction in binding between FIBCD1 and acetylated BSA by ELISA relative to control. (ELISA stands for enzyme-linked immunosorbent assay.)

The target of assay [2] is T1, Fibrinogen C domain-containing protein 1 (Homo sapiens). The assay is described as follows: Binding affinity to V5-His tagged FIBCD1 ecto-domain (54 to 461 residues) (unknown origin) expressed in HEK293 cells assessed as reduction in binding between FIBCD1 and acetylated BSA by ELISA. The class given is cell-based.
Assay [3] shares this target. The assay is described as follows: Binding affinity to V5-His tagged FIBCD1 ecto-domain (54 to 461 residues) (unknown origin) assessed as reduction in binding between FIBCD1 and acetylated BSA at 50 mM by ELISA relative to control.
The target is the same in assay [4]. The assay is described as follows: Binding affinity to V5-His tagged FIBCD1 ecto-domain (54 to 461 residues) (unknown origin) expressed in CHO cells assessed as reduction in endocytosis of [125I]Acetylated BSA by measuring degraded acetylated BSA level measured up to 4 hrs. The class given is cell-based.

As for `CC(=O)N[C@@H]1[C@@H](O)[C@@H](O)[C@@H](CO)O[C@@H]1O`, the Ratio in assay [1] was determined as 0.4.
Same read-out and setting: for `CC(=O)O` the value was 0.7; for `CC(=O)OCC[N+](C)(C)C`, 0.2.
`OC[C@H]1OC(O)[C@@H](O)[C@@H](O)[C@@H]1O` (stereo not given in full): in assay [2], the I50 result is “inactive”. For the same compound, in assay [3], the inhibition (commonly how much of the control response was suppressed) was less than 50%.
For `O=C[C@H](O)[C@@H](O)[C@@H](O)[C@H](O)CO` the same measures were “inactive” and less than 50%.
Turning to `N[C@H]1[C@H]([C@H](O)[C@H](O)CO)OC(O)(C(=O)O)C[C@@H]1O` (stereo not given in full), the Ratio in assay [1] was found to be 1.
Consider `CCCC(=O)O`, for which, in assay [2], the I50 entry was “inactive”. Moreover, the inhibition in assay [3] was less than 50%.
`CCN(CC)CCCC(C)Nc1ccnc2cc(Cl)ccc12` (stereo not given): the outcome in assay [4] was Active.
As for `OC[C@H]1OC(O)[C@H](O)[C@@H](O)[C@@H]1O` (stereo not given in full), the I50 entry in assay [2] is “inactive”. Further, the inhibition in assay [3] was less than 50%.
Consider `CCC(=O)O`, for which the I50 entry in assay [2] was “inactive”. Moreover, the inhibition in assay [3] is less than 50%.
